The results in this text go back to US4226879A, “Antibiotic composition” (Kyowa Hakko Kogyo Kabushiki Kaisha, priority 1976, dated 1980).

In one series the test system is Staphylococcus aureus. In words: antibacterial activity. It counts as cell-based.
Series [1] concerns poultry. Put plainly: growth-promoting effect in poultry. In kind it is in vivo. The following applies: 0.001 to 0.02% by weight of the diet. An excerpt: Thus, AM-1042 is potentially of interest owing to its growth-promoting effect. For this purpose, the mode of administration is analogous to those described above.
The test system of a further series is Sacchromyces cerevisiae. Put plainly: MIC, agar dilution method. It counts as cell-based. The settings on record: pH 6.8, 27° C. 72 hours. (In general: In agar dilution the substance is mixed into plates at graded concentrations.)
For a further series, the system named is Alternaria kikuchiana. In words: MIC, agar dilution method. The settings on record: pH 6.8, 27° C. 72 hours. In kind it is cell-based.
Another series deals with B. cereus T. Put plainly: MIC, agar dilution method. In kind it is cell-based.
Another series deals with Eimeria maxima. Put plainly: anticoccidial activity. In kind it is in vivo.
The test system of the next series is B. megaterium APF. In words: MIC, agar dilution method. In kind it is cell-based. The following applies: Priestia megaterium; pH 7.0, 37° C., 18 hours.
The next series relates to S. aureus FDA 209P JC-1. In words: MIC, agar dilution method. In kind it is cell-based. The following applies: Staphylococcus aureus, FDA209P; pH 7.0, 37° C., 18 hours.
For series [2], the system named is S. aureus FS-1277 (penicillin-resistant). Put plainly: MIC, agar dilution method. It counts as cell-based. The settings on record: Staphylococcus aureus; pH 7.0, 37° C., 18 hours.
Another series concerns Nocardia asteroides. In words: MIC, agar dilution method. It counts as cell-based.
Another series deals with Gram-negative bacteria. Put plainly: growth inhibition, agar dilution method. In kind it is cell-based. The following applies: at concentration below 100 mcg/ml. How it is done:
(§1) Table 1 indicates the antibacterial and antifungal activity of AM-1042 as minimum inhibitory concentration (mcg/ml) determined by the agar dilution method.
*Peptone 0.5%; meat extract 0.5%; agar 1.2% (pH 7.0), 37° C., 18

For a further series, the system named is fungi. Put plainly: antifungal activity, agar dilution method. It counts as cell-based. The settings on record: at a concentration below 100 mcg/ml.
Description: as §1
**Potato extract containing glucose 1.0% and agar 1.2% (pH 6.8),

Another series deals with Fusarium oxysporum. In words: MIC, agar dilution method. It counts as cell-based. The settings on record: pH 6.8, 27° C. 72 hours.
The test system of series [3] is poultry. Put plainly: side effects in poultry. In kind it is in vivo, poultry such as chickens. The following applies: pharmaceutical composition or assorted diet, chickens, turkeys.
Series [4] deals with Mycobacterium smegmatis ATCC 607. Put plainly: MIC, agar dilution method. In kind it is cell-based. The following applies: Mycolicibacterium smegmatis, ATCC607; pH 7.0, 37° C., 18 hours.
The nature of another series: in vivo. The following applies: mouse, ip.
The subject of series [5] is Corynebacterium paurometabolum. In words: MIC, agar dilution method. In kind it is cell-based. The settings on record: Tsukamurella paurometabola; pH 7.0, 37° C., 18 hours.
Series [6] has as its system Trichophyton mentagrophytes. Put plainly: MIC, agar dilution method. It counts as cell-based. The settings on record: pH 6.8, 27° C. 72 hours.
In the next series the test system is Eimeria necatrix. Put plainly: anticoccidial activity. In kind it is in vivo.
The subject of the next series is B. subtilis ATCC 6633. In words: MIC, agar dilution method. It counts as cell-based. The settings on record: Bacillus subtilis, ATCC6633; pH 7.0, 37° C., 18 hours.
For another series, the system named is mice. The following applies: mouse, in vivo, 450 mg/kg.

≈ marks a conversion by molar mass, not a printed value. Entries after “also recorded” stand apart in the source; their conditions may differ.

Turning to `O=C(/C=C/C=C/C=C/C1CCCCC1)NC1=CC(O)(/C=C/C=C/C=C/C(=O)NC2=C(O)CCC2=O)C2OC2C1=O` (centres unmarked) [AM-1042], the “activity upon Staphylococcus aureus” value with Staphylococcus aureus is listed as “active”. The growth-promoting effect entry in the series on poultry [1] is “capable of promoting the growth of poultry; also recorded: exhibits a growth-promoting effect”. In addition, the MIC was greater than 100 µg/mL against Sacchromyces cerevisiae; greater than 100 µg/mL against Alternaria kikuchiana; 3.1 µg/mL (≈ 5.67 µM) against B. cereus T (Bacillus cereus, pH 7.0, 37° C., 18 hours); 6.2 µg/mL (≈ 11.3 µM) in the series on B. megaterium APF; 0.7 µg/mL (≈ 1.28 µM) against S. aureus FDA 209P JC-1; 6.2 µg/mL (≈ 11.3 µM) in [2]. The minimal inhibitory concentration (MIC) with Nocardia asteroides (Nocardia asteroides, pH 7.0, 37° C., 18 hours) was 1.56 µg/mL (≈ 2.85 µM); against Fusarium oxysporum, greater than 100 µg/mL; in series [4], greater than 100 µg/mL; in [5], 1.56 µg/mL (≈ 2.85 µM); in series [6] it was 25 µg/mL (≈ 45.7 µM); in the series on B. subtilis ATCC 6633, 6.2 µg/mL (≈ 11.3 µM). For the same molecule, in the series on B. cereus T, the “activity upon Bacillus cereus” value is recorded as “active”. The activity upon coccidiosis result with Eimeria maxima and with Eimeria necatrix was “significantly active” throughout. Moreover, the “activity upon Nocarida asteroides” value in the series on Nocardia asteroides is given as “active”. For the same molecule, the “effect on Gram-negative bacteria” value in the series on Gram-negative bacteria was “no significant effect”. The activity on fungi result with fungi is on record as “no significant activity”. Also, the “side effects in poultry” value with poultry [3] is “without any side effects”. Moreover, the LD50 in the series “in vivo” worked out at 48.5 mg/kg. In addition, the “side effect on mice” value in the series with mice is “no side effect”.

The MIC is the least concentration at which growth counts as inhibited. Usually LD50 stands for the dose at which mortality reaches 50%.
